For 15 molecules, normalised response results are on record in the supplement of paper PMC4862054.

Assay in all cases: normalised response (% of control), CellTiter-Glo; higher = more viable cells (100 = DMSO, 0 = benzethonium chloride kill control)
Details in all cases: incubation time: 72 h

One assay deals with CAL-120. The essentials: (§1)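 After 72 h with compound in 384-well plates, breast cancer cell lines seeded as 20 µl suspension were read for CellTox Green fluorescence at 485/520 nm. CellTiter-Glo luminescence was then read after 10 min at room temperature. Compound was present at 5 concentrations in 10-fold steps over a 10,000-fold range set per compound, and plates were normalised to 0.1 % DMSO (100) and a positive kill control (0). Values are normalised signals, each at a single concentration.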

A further assay relates to CAL-148. The essentials:
as §1

For another assay, the system named is CAL-85-1. The essentials: as §1
The subject of a further assay is HCC1143. The essentials:
as §1

The test system of another assay is MCF-10A. The essentials: as §1
The subject of another assay is MDA-MB-231. The essentials:
as §1

The next assay concerns MDA-MB-436. The method in brief:
as §1

Take `Cc1c(N)nc([C@H](CC(N)=O)NC[C@H](N)C(N)=O)nc1C(=O)N[C@H](C(=O)N[C@H](C)[C@@H](O)[C@H](C)C(=O)N[C@H](C(=O)NCCc1nc(-c2nc(C(=O)NCCC[S+](C)C)cs2)cs1)[C@@H](C)O)[C@@H](OC1OC(CO)C(O)C(O)C1OC1OC(CO)C(O)C(OC(N)=O)C1O)c1cnc[nH]1` (stereo not given in full) [Bleomycin] (10000 nM): the normalised response in the assay with CAL-120 is 80.9%; in the assay on CAL-148 it was 63.3%; in the assay on CAL-85-1, 64.3%; in the assay on HCC1143, 48.5%; in the assay with MCF-10A, 53%; in the assay with MDA-MB-231, 74.8%. The molecule further had a normalised response in the assay with MDA-MB-436 of 39.1%.

In the case of `Cc1cc2c(F)c(Oc3ncnn4cc(OC[C@@H](C)O)c(C)c34)ccc2[nH]1` [Brivanib] (1000 nM), the normalised response stood at 112% in the assay on CAL-120; 112% with CAL-148; 93.4% with CAL-85-1; 100% in the assay on HCC1143; 108% with MCF-10A; 104% in the assay with MDA-MB-231. This molecule also came in with a normalised response in the assay with MDA-MB-436 of 112%.

With `CCCCCOC(=O)Nc1nc(=O)n([C@@H]2O[C@H](C)[C@@H](O)[C@H]2O)cc1F` [Capecitabine] (10000 nM), the normalised response in the assay with CAL-120 is 98.5%; with CAL-148 it was 109%; with CAL-85-1, 56%; in the assay with HCC1143 it was 92.8%; with MCF-10A, 102%; in the assay on MDA-MB-231, 100%. For the same molecule, the normalised response with MDA-MB-436 is 78.6%.

On to `CC(C)C[C@H](NC(=O)[C@H](CCc1ccccc1)NC(=O)CN1CCOCC1)C(=O)N[C@@H](Cc1ccccc1)C(=O)N[C@@H](CC(C)C)C(=O)[C@@]1(C)CO1` [Carfilzomib] (1000 nM), for which the normalised response came to 1.88% in the assay with CAL-120; 7.77% in the assay with CAL-148; 1.03% in the assay with CAL-85-1; 5.78% in the assay with HCC1143; 0.46% in the assay with MCF-10A; 0.28% in the assay on MDA-MB-231. The molecule also had a normalised response in the assay on MDA-MB-436 of 2.1%.

On to `Nc1nc(Cl)nc2c1ncn2[C@@H]1O[C@H](CO)[C@@H](O)[C@@H]1F` [Clofarabine] (10000 nM), for which the normalised response in the assay on CAL-120 is 69.8%; in the assay on CAL-148 it was 40.5%; with CAL-85-1, 35.4%; in the assay on HCC1143, 40.3%; in the assay with MCF-10A, 56.9%; with MDA-MB-231, 73%. The molecule also returned a normalised response in the assay with MDA-MB-436 of 21.4%.

Regarding `CCN(CC)CCOc1ccc(C(=C(Cl)c2ccccc2)c2ccccc2)cc1` [Clomifene] (10000 nM), the normalised response with CAL-120 turned out to be 90.2%; in the assay with CAL-148, 74.4%; in the assay on CAL-85-1, 44.9%; in the assay on HCC1143, 95.4%; in the assay on MCF-10A, 46.1%; in the assay on MDA-MB-231, 4.7%. The molecule further displayed a normalised response in the assay with MDA-MB-436 of 87.6%.

As for `C[C@@H]1C[C@H]2[C@@H]3CCC4=CC(=O)C=C[C@]4(C)[C@@]3(F)[C@@H](O)C[C@]2(C)[C@@]1(O)C(=O)CO` [Dexamethasone] (10000 nM), the normalised response in the assay on CAL-120 came out at 70.3%; in the assay with CAL-148 it was 98.2%; in the assay on CAL-85-1, 124%; with HCC1143, 99.6%; in the assay with MCF-10A, 79.9%; in the assay with MDA-MB-231, 149%. In addition, in the assay with MDA-MB-436, the normalised response is 103%.

Turning to `CC(C)C(=O)Nc1ccc([N+](=O)[O-])c(C(F)(F)F)c1` [Flutamide] (10000 nM), the normalised response with CAL-120 was found to be 104%; in the assay on CAL-148, 101%; in the assay on CAL-85-1, 90.1%; with HCC1143, 95%; in the assay on MCF-10A, 96.7%; in the assay on MDA-MB-231, 93.3%. The molecule also came in with a normalised response with MDA-MB-436 of 98.4%.

Take `COc1cc2c(Oc3ccc(NC(=O)C4(C(=O)Nc5ccc(F)cc5)CC4)cc3F)ccnc2cc1OCCCN1CCOCC1` [Foretinib] (1000 nM): the normalised response in the assay with CAL-120 is 68%; in the assay on CAL-148, 48.9%; in the assay with CAL-85-1, 90.3%; with HCC1143, 69.2%; with MCF-10A, 60.7%; with MDA-MB-231 it was 60.2%. The molecule further gave a normalised response with MDA-MB-436 of 73.3%.

For `NC(=O)NO` [Hydroxyurea] (100000 nM), the normalised response in the assay on CAL-120 is 96.9%; with CAL-148 it was 102%; in the assay with CAL-85-1 it was 101%; with HCC1143, 104%; in the assay on MCF-10A, 105%; with MDA-MB-231 it was 98.5%. The normalised response in the assay on MDA-MB-436 worked out at 103%.

On to `O=NN(CCCl)C(=O)NC1CCCCC1` [Lomustine] (10000 nM), for which the normalised response with CAL-120 amounted to 98.5%; in the assay on CAL-148, 97%; in the assay on CAL-85-1, 99.9%; in the assay on HCC1143, 96.2%; with MCF-10A, 104%; with MDA-MB-231 it was 95.9%. Further, in the assay with MDA-MB-436, the normalised response worked out at 105%.

For `O=C(O)CC[C@H]1CC[C@@](c2cc(F)ccc2F)(S(=O)(=O)c2ccc(Cl)cc2)CC1` [MK-0752] (1000 nM), the normalised response worked out at 105% in the assay on CAL-120; 115% with CAL-148; 98.1% with CAL-85-1; 103% in the assay with HCC1143; 95.6% in the assay with MCF-10A; 97% in the assay with MDA-MB-231. The molecule also had a normalised response in the assay with MDA-MB-436 of 105%.

`NC(=O)c1cccc2cn(-c3ccc([C@@H]4CCCNC4)cc3)nc12` [MK-4827] (10000 nM): the normalised response is 93.2% in the assay on CAL-120; 71.8% in the assay on CAL-148; 81.8% in the assay on CAL-85-1; 87.3% with HCC1143; 101% in the assay on MCF-10A; 87.4% with MDA-MB-231. For the same molecule, the normalised response in the assay with MDA-MB-436 is 68.9%.

Consider `CO[C@H](C(=O)[C@@H](O)[C@@H](C)O)[C@@H]1Cc2cc3cc(O[C@H]4C[C@@H](O[C@@H]5C[C@@H](O)[C@H](O)[C@@H](C)O5)[C@H](O)[C@@H](C)O4)c(C)c(O)c3c(O)c2C(=O)[C@H]1O[C@H]1C[C@@H](O[C@@H]2C[C@@H](O)[C@@H](O[C@@H]3C[C@](C)(O)[C@H](O)[C@@H](C)O3)[C@@H](C)O2)[C@H](O)[C@@H](C)O1` [Plicamycin] (10000 nM), for which the normalised response with CAL-120 worked out at 27%; in the assay on CAL-148, 6.34%; in the assay with CAL-85-1 it was 9.87%; in the assay on HCC1143, 6.57%; in the assay with MCF-10A it was 5.35%; with MDA-MB-231, 7.32%. The molecule further had a normalised response in the assay on MDA-MB-436 of 22.5%.

In the case of `C[C@]12C=CC(=O)C=C1CC[C@@H]1[C@@H]2C(=O)C[C@@]2(C)[C@H]1CC[C@]2(O)C(=O)CO` [Prednisone] (10000 nM), the normalised response in the assay on CAL-120 is 49%; with CAL-148, 109%; with CAL-85-1, 98.6%; with HCC1143 it was 103%; with MCF-10A, 113%; in the assay with MDA-MB-231, 100%. Moreover, the normalised response in the assay with MDA-MB-436 worked out at 98.2%.
